Assay results from patent publication US8921372B2, “Inhibitors of hepatitis C virus” (Theravance Biopharma R&D IP, LLC, priority 2010, dated 2014).
Read-outs that look alike come from different tables or passages of the source.

Tests used:
[1] = test system: HCV genotype 1a replicon cell line (APC89; Huh7.5 cell background); test: HCV Genotype 1a Replicon Assay (NS3-specific protease activity readout); type: cell-based; conditions: Hepatitis C virus
Experimental: Assay 2: HCV Genotype 1a Replicon Assay
The HCV genotype 1a replicon cell line was obtained from Apath LLC (APC89; Huh7.5 cell background). This subgenomic replicon contains the N-terminus of the HCV core protein fused to the neomycin-resistance selectable marker. The EMCV IRES lies downstream and drives expression of the non-structural proteins NS3-NS5B. Compound potencies were determined using the NS3-specific protease activity in lysates as a measurement of compound inhibition of replicon levels.
(§1) Cells were grown at 37° C. in a 5% CO2 humidified incubator in DMEM (Invitrogen) with 10% FBS (HyClone), 1×NEAA (Invitrogen), 1× Pen-Strep (Invitrogen), and 850 μg/mL G418 (Invitrogen). On day 1 of the assay, cells were plated at 15,000 cells/well in black 96-well tissue culture plates (Costar) in 200 μL media lacking G418. Four hours later, once the cells had adhered, the media was removed and replaced with media (no G418) containing dose-responses of test compounds. Compounds were initially diluted in DMSO and then diluted another 200× in media to bring the final DMSO concentration down to 0.5%. The cells were incubated with test compounds for 48 or 72 hours. At the end of the incubation period, media and compound were removed from the plates.
To determine the NS3-specific protease activity in lysates, the cells were lysed at room temperature in 50 μL/well of 50 mM Hepes pH 7.5, 150 mM NaCl, 15% Glycerol, 0.15% Triton X-100, 10 mM DTT for 20 minutes with shaking. 50 μL of an NS3/4a protease-specific FRET substrate (Anaspec RET S1 Cat#22991) was then added to the wells at a final concentration of 15 μM. The plates were incubated at 37° C. for 20 minutes, which corresponds to a timepoint at which the protease activity is still in the linear phase. Protease activity was determined by measuring fluorescence (Excitation: 340 nm; Emission: 509 nm).
To analyze the data, the fluorescence was plotted vs. the compound concentration, and EC50 values were determined from a 4-parameter robust fit model using GraphPad Prism software.

[2] = test system: HCV genotype 1b replicon cell line (APC144; Huh7 cell background); test: HCV Genotype 1b Replicon Assay (Renilla luciferase readout); type: cell-based; conditions: Hepatitis C virus, Huh-7; read-out: Genotype 1b (pEC50 class, HCV genotype 1b replicon assay) (converted)
Text: Assay 1: HCV Genotype 1b Replicon Assay
The HCV genotype 1b replicon cell line was obtained from Apath LLC (Brooklyn, N.Y.) (APC144; Huh7 cell background). This subgenomic replicon contains the N-terminus of the HCV core protein fused to the neomycin-resistance selectable marker. The EMCV IRES lies downstream and drives expression of humanized Renilla luciferase fused to the non-structural proteins NS3-NS5B. This cell line was used to determine compound potency using the luciferase activity readout as a measurement of compound inhibition of replicon levels.
as §1, with “500” for “850”, “10,000” for “15,000”, “white” for “black”, “have” for “had”, “48” for “48 or 72”, “plates and the luciferase activity was determined using Promega Renilla-Glo reagents.” for “plates.”
To analyze the data, the luciferase activity was plotted vs. the compound concentration, and EC50 values were determined from a 4-parameter robust fit model with the GraphPad Prism software package (GraphPad Software, Inc., San Diego, Calif.). Results are expressed as the negative decadic logarithm of the EC50 value, pEC50.
Test compounds having a higher pEC50 value in this assay show greater inhibition of HCV genotype 1b replication.

[3] = compounds incubated for 48 hours, read-out: Genotype 1a (pEC50 class, HCV genotype 1a replicon assay), * results (converted)
[4] = 72 hour incubation, read-out: Genotype 1a (pEC50 class, HCV genotype 1a replicon assay) (converted)

Structure (SMILES) | EC50 [1, 3] | EC50 [2] | EC50 [1, 4]
COC(=O)N[C@H](C(=O)N1CCC[C@H]1c1nc(-c2ccc(-c3ccc(NC(=O)c4ccc(N5CCN(C(=O)C(C)(C)C)CC5)cc4)cc3)cc2)c[nH]1)C(C)C [Example 2, ((S)-1-{(S)-2-[4-(4′-{4-[4-(2,2-Dimethyl-propionyl)-piperazin-1-yl]-benzoylamino}-biphenyl-4-yl)-1H-imidazol-2-yl]-pyrrolidine-1-carbonyl}-2-methyl-propyl)-carbamic acid methyl ester] | 1 to 10 nM | < 0.1 nM | 
COC(=O)N[C@H](C(=O)N1CCC[C@H]1c1nc(-c2ccc(-c3ccc(NC(=O)c4ccc(N5CCN(C(=O)OC(C)(C)C)CC5)cc4)cc3)cc2)c[nH]1)C(C)C [Example 3, 4-[4-(4′-{2-[(S)-1-((S)-2-Methoxycarbonylamino-3-methyl-butyryl)-pyrrolidin-2-yl]-1H-imidazol-4-yl}-biphenyl-4-ylcarbamoyl)-phenyl]-piperazine-1-carboxylic acid tert-butyl ester] | 1 to 10 nM | < 0.1 nM | 
COC(=O)N[C@H](C(=O)N1CCC[C@H]1c1nc(-c2ccc(-c3ccc(NC(=O)c4ccc(N5CCN(S(C)(=O)=O)CC5)cc4)cc3)cc2)c[nH]1)C(C)C [Example 4, {(S)-1-[(S)-2-(4-{4′-[4-(4-Methanesulfonyl-piperazin-1-yl)-benzoylamino]-biphenyl-4-yl}-1H-imidazol-2-yl)-pyrrolidine-1-carbonyl]-2-methyl-propyl}-carbamic acid methyl ester] | 10 to 100 nM | < 0.1 nM | 
COC(=O)N[C@H](C(=O)N1CCC[C@H]1c1nc(-c2ccc(-c3ccc(NC(=O)c4ccc(N5CCN(C(=O)C6CC6)CC5)nc4)cc3)cc2)c[nH]1)C(C)C [Example 5, ((S)-1-{(S)-2-[4-(4′-{[6-(4-Cyclopropanecarbonyl-piperazin-1-yl)-pyridine-3-carbonyl]-amino}-biphenyl-4-yl)-1H-imidazol-2-yl]-pyrrolidine-1-carbonyl}-2-methyl-propyl)-carbamic acid methyl ester] |  | < 0.1 nM | 1 to 10 nM
COC(=O)N[C@H](C(=O)N1CCC[C@H]1c1nc(-c2ccc(-c3ccc(C(=O)Nc4ccc(N5CCN(C(=O)OC(C)(C)C)CC5)cc4)cc3)cc2)c[nH]1)C(C)C [Example 6, 4-{4-[(4′-{2-[(S)-1-((S)-2-Methoxycarbonylamino-3-methyl-butyryl)-pyrrolidin-2-yl]-1H-imidazol-4-yl}-biphenyl-4-carbonyl)-amino]-phenyl}-piperazine-1-carboxylic acid tert-butyl ester] | 10 to 100 nM | < 0.1 nM | 
COC(=O)N[C@H](C(=O)N1CCC[C@H]1c1nc(-c2ccc(-c3ccc(C(=O)Nc4ccc(N5CCN(C(=O)C6CC6)CC5)cc4)cc3)cc2)c[nH]1)C(C)C [Example 7, {(S)-1-[(S)-2-(4-{4′-[4-(4-cyclopropanecarbonyl-piperazin-1-yl)-phenylcarbamoyl]-biphenyl-4-yl}-1H-imidazol-2-yl)-pyrrolidine-1-carbonyl]-2-methyl-propyl}-carbamic acid methyl ester] | 1 to 10 nM | < 0.1 nM | 
COC(=O)N[C@H](C(=O)N1CCC[C@H]1c1nc(-c2ccc(-c3ccc(NC(=O)c4ccc(N5CCN(C(=O)C6CC6)CC5)cc4)cc3F)cc2)c[nH]1)C(C)C [Example 8, {(S)-1-[(S)-2-(4-{4′-[4-(4-cycloproanecarbonyl-piperazin-1-yl)-benzoylamino]-2′-fluoro-biphenyl-4-yl}-1H-imidazol-2-yl)-pyrrolidine-1-carbonyl]-2-methyl-propyl}-carbamic acid methyl ester] |  | < 0.1 nM | 1 to 10 nM
CCN(CC)[C@@H](C(=O)N1CCC[C@H]1c1nc(-c2ccc(-c3ccc(NC(=O)c4ccc(N5CCN(C(=O)C6CC6)CC5)cc4)cc3)cc2)c[nH]1)c1ccccc1 [Example 9, 4-(4-Cyclopropanecarbonyl-piperazin-1-yl)-N-(4′-{2-[(S)-1-((R)-2-diethylamino-2-phenyl-acetyl)-pyrrolidin-2-yl]-1H-imidazol-4-yl}-biphenyl-4-yl)-benzamide] | 0.1 to 1 nM | < 0.1 nM | 
CNC(=O)N1CCN(c2ccc(C(=O)Nc3ccc(-c4ccc(-c5c[nH]c([C@@H]6CCCN6C(=O)[C@@H](NC(=O)OC)C(C)C)n5)cc4)cc3)cn2)CC1 [Example 10, ((S)-2-Methyl-1-{(S)-2-[4-(4′-{[6-(4-methylcarbamoyl-piperazin-1-yl)-pyridine-3-carbonyl]-amino}-biphenyl-4-yl)-1H-imidazol-2-yl]-pyrrolidine-1-carbonyl}-propyl)-carbamic acid methyl ester] | 0.1 to 1 nM | < 0.1 nM | 
CNC(=O)N1CCN(c2ccc(C(=O)Nc3ccc(-c4ccc(-c5nc([C@@H]6CCCN6C(=O)[C@@H](NC(=O)OC)C(C)C)[nH]c5Cl)cc4)cc3)cc2)CC1 [Example 11, {(S)-1-[(S)-2-(5-Chloro-4-{4′-[4-(4-methylcarbamoyl-piperazin-1-yl)-benzoylamino]-biphenyl-4-yl}-1H-imidazol-2-yl)-pyrrolidine-1-carbonyl]-2-methyl-propyl}-carbamic acid methyl ester] | 0.1 to 1 nM | < 0.1 nM | 
COC(=O)N[C@H](C(=O)N1CCC[C@H]1c1nc(-c2ccc(-c3ccc(NC(=O)c4ccc(N5CCN(C(=O)C6CC6)C[C@H]5C)nc4)cc3)cc2)c[nH]1)C(C)C [Example 12, ((S)-1-{(S)-2-[4-(4′-{[6-((R)-4-Cyclopropanecarbonyl-2-methyl-piperazin-1-yl)-pyridine-3-carbonyl]-amino}-biphenyl-4-yl)-1H-imidazol-2-yl]-pyrrolidine-1-carbonyl}-2-methyl-propyl)-carbamic acid methyl ester] |  | < 0.1 nM | 0.1 to 1 nM
COC(=O)N[C@H](C(=O)N1CCC[C@H]1c1nc(-c2ccc(-c3ccc(NC(=O)c4ccc(N5CCN(C(=O)[C@H]6CC6(C)C)C[C@@H]5C)nc4)cc3)cc2)c[nH]1)C(C)C [Example 13, [(S)-1-((S)-2-{4-[4′-({6-[(S)-4-((S)-2,2-Dimethyl-cyclopropane-carbonyl)-2-methyl-piperazin-1-yl]-pyridine-3-carbonyl}-amino)-biphenyl-4-yl]-1H-imidazol-2-yl}-pyrrolidine-1-carbonyl)-2-methyl-propyl]-carbamic acid methyl ester] |  | < 0.1 nM | < 0.1 nM
COC(=O)N[C@H](C(=O)N1CCC[C@H]1c1nc(-c2ccc(-c3ccc(NC(=O)c4ccc(N5CCN(C(=O)[C@H]6CC6(C)C)C[C@H]5C)nc4)cc3)cc2)c[nH]1)C(C)C [Example 14, [(S)-1-((S)-2-{4-[4′-({6-[(R)-4-((S)-2,2-Dimethyl-cyclopropane-carbonyl)-2-methyl-piperazin-1-yl]-pyridine-3-carbonyl}-amino)-biphenyl-4-yl]-1H-imidazol-2-yl}-pyrrolidine-1-carbonyl)-2-methyl-propyl]-carbamic acid methyl ester] |  | < 0.1 nM | < 0.1 nM
COC(=O)N[C@H](C(=O)N1CCC[C@H]1c1nc(-c2ccc(-c3ccc(NC(=O)c4ccc(N5CCN(C(=O)[C@]6(C)CCCN6C(C)=O)C[C@H]5C)nc4)cc3C)cc2)c[nH]1)C(C)C [Example 15, [(S)-1-((S)-2-{5-[4′-({6-[(R)-4-((S)-1-Acetyl-2-methyl-pyrrolidine-2-carbonyl)2-methyl-piperazin-1-yl]-pyridine-3-carbonyl}-amino)-2′-methyl-biphenyl-4-yl]-1H-imidazol-2-yl}-pyrrolidine-1-carbonyl)-2-methyl-propyl]-carbamic acid methyl ester] |  | < 0.1 nM | < 0.1 nM
